Reference: patent publication US20050107473A1, “Process for producing tert-leucine” (AJINOMOTO CO. INC, priority 2002, published 2005)

Assay: solubility of L-tert-leucine in aqueous solutions
Format: physicochemical
Details: 10° C.

solubility in 1N aqueous hydrochloric acid solution (1N aqueous hydrochloric acid solution): 20.4 wt % | solubility in water (water): 12.7 wt %
Structure (SMILES): CC(C)(C)[C@H](N)C(=O)O [L-tert-leucine]
